Measured values as given in patent EP2327766B1, “Nitrilases” (BASF Enzymes LLC, priority 2001, dated 2003).

Tested on: Nitrilase II, SEQ ID NOS:103, 104, obtained from an environmental sample
Assay: High throughput nitrilase activity assay, turnover frequency on aryl acetaldehyde cyanohydrins
Assay type: biochemical, Unknown (obtained from an environmental sample)
Conditions: conditions as in Table 13 (25 mM substrate, 10% MeOH, 37°C, pH 8), except 0.016 mg/mL nitrilase
Text: We next examined the preparation of aryllactic acid derivatives 6 through hydrolysis of the corresponding cyanohydrins 5. Phenyllactic acid and derivatives serve as versatile building blocks for the preparation of numerous biologically active compounds. (Coppola, G.M.; Schuster, H.F. Chiral α-Hydroxy Acids in Enantioselective Synthesis; Wiley-VCH: Weinheim, Germany: 1997.) Upon screening our nitrilase library against the parent cyanohydrin 5a (Ar= phenyl), we found several enzymes that provided 6a with high enantiomeric excess. One enzyme, SEQ ID NOS: 103, 104, was further characterized. […] The highest [drawing 20] enantioselectivity previously reported for biocatalytic conversion of 5 to 6 was 75% ee achieved through a whole cell transformation using a Pseudomonas strain. (Hashimoto, Y.; Kobayashi, E.; Endo, T.; Nishiyama, M.; Horinouchi, S. Biosci. Biotech. Biochem. 1996, 60, 1279.) Table 14. Nitrilase II-catalyzed production of aryllactic acid derivatives and analogues 6a
(§1) Assay solutions consisted of 0-10% (v/v) MeOH in 0.1 M sodium phosphate buffer solution at pH 7 to 9 and temperatures 37°C or 22°C. Specific activities were measured at 5 min transformation time point, unless otherwise noted, and are expressed in units µmol mg^-1 min^-1. Enantiomeric excess and conversion rates were determined by high throughput HPLC analysis comparing enzyme product concentration to standard curves of racemic acid products. Analytical conditions for the products are tabulated below.

Row | Molecule | TOF (turnover frequency)
1 | Cc1ccccc1CC(O)C#N (stereo not shown) [2-methylphenyl acetaldehyde cyanohydrin] | 100 mol product/mol catalyst/sec
2 | N#CC(O)Cc1ccccc1 (stereo not shown) [phenyl acetaldehyde cyanohydrin] | 16 mol product/mol catalyst/sec
3 | N#CC(O)Cc1cccs1 (stereo not shown) [2-thienyl acetaldehyde cyanohydrin] | 2.1 mol product/mol catalyst/sec
4 | N#CC(O)Cc1ccccc1F (stereo not shown) [2-fluorophenyl acetaldehyde cyanohydrin] | 97 mol product/mol catalyst/sec
5 | N#CC(O)Cc1ccccc1Br (stereo not shown) [2-bromophenyl acetaldehyde cyanohydrin] | 76 mol product/mol catalyst/sec
6 | N#CC(O)Cc1ccccn1 (stereo not shown) [2-pyridyl acetaldehyde cyanohydrin] | 6.6 mol product/mol catalyst/sec
7 | N#CC(O)Cc1ccsc1 (stereo not shown) [3-thienyl acetaldehyde cyanohydrin] | 1.4 mol product/mol catalyst/sec
8 | N#CC(O)Cc1cccc2ccccc12 (stereo not shown) [1-napthyl acetaldehyde cyanohydrin] | 40 mol product/mol catalyst/sec
9 | Cc1cccc(CC(O)C#N)c1 (stereo not shown) [3-methylphenyl acetaldehyde cyanohydrin] | 13 mol product/mol catalyst/sec
10 | N#CC(O)Cc1cccc(F)c1 (stereo not shown) [3-tluorophenyl acetaldehyde cyanohydrin] | 14 mol product/mol catalyst/sec
11 | 3-pyridyl acetaldehyde cyanohydrin | 7.2 mol product/mol catalyst/sec

Tested on: nitrilase SEQ ID NOS:103, 104
Assay: Effect of starting material and product on nitrilase activity (phenylacetaldehyde cyanohydrin hydrolysis)
Assay type: biochemical, Unknown (obtained from an environmental sample)
Conditions: up to levels of 5 mM
Method: The effect of the process components on the activity of the enzymes was established by addition of the individual components to the enzymatic reaction. These components included the starting materials for the nitrile synthesis, aldehyde, cyanide and ammonium, as well as triethylamine, which is added in catalytic amounts to the nitrile synthesis reaction. The concentrations of the reactants were selected with possible process conditions in mind and were adapted to the levels of reactants used in the enzyme assays. In some cases, the solubility of the aldehydes and products was relatively low; in these cases, the highest level of solubility was added to the reactions as the highest level and 10% of this level as the lower value.
The enzymatic reactions were carried out under standard conditions, with addition of one or more of the following components: benzaldehyde, phenylglycine, phenylacetaldehyde, phenyllactic acid, 2-chlorobenzaldehyde, 2-chloromandelic acid, 5-hydroxypentanal, (S)-2-amino-6-hydroxy hexanoic acid, 4-methylleucine, KCN, Triethylamine, NH4Cl. Control reactions were performed under standard conditions, with no additive. The samples were analyzed by non-chiral HPLC.
SEQ ID NOS: 103, 104 was identified as a highly enantioselective nitrilase for the production of (S)- phenyllactic acid. […] The scaled-up enzymatic reaction with an enantiomeric excess (ee) of 95%. […]

Row | Molecule | effect on the enzyme activity
12 | O=CCc1ccccc1 [phenylacetaldehyde] | no effect

Tested on: nitrilase SEQ ID NOS:385, 386, obtained from an environmental sample
Assay: Effect of reaction components on nitrilase activity (2-chloromandelonitrile hydrolysis, non-chiral HPLC)
Assay type: biochemical, Unknown (obtained from an environmental sample)
Conditions: 5 mM additive; 25 mM 2-chloromandelonitrile, 0.1 M phosphate buffer pH 8, 37°C
Text: A vital part of an investigation into process optimization of an enzyme involves the determination of the effects of any compounds which could be present in the enzymatic reaction. For SEQ ID NOS:385, 386, these components were established as the starting material and equilibrium product of the cyanohydrin, 2-chlorobenzaldehyde; the product, 2-chloromandelic acid and the contaminant detected in the substrate, 2-chlorobenzoic acid. […] The presence of trace amounts of triethylamine was also found to be tolerable to the enzyme.
The effect of the various reaction components on the activity of SEQ ID NOS:385, 386 was assessed by addition of various levels of possible inhibitors to the enzyme reaction. […]
• (i) Activity: The effect of the process components on the activity of the enzymes was established by addition of the individual components, 2-chlorobenzaldehyde, 2-chlorobenzoic acid or 2-chloromandelic acid, to the enzymatic reaction. […] The samples were analysed by non-chiral HPLC. • (ii) Stability: The stability of the enzymes to process conditions was monitored by incubation of the enzymes in the presence of the reaction components, 2-chlorobenzaldehyde and 2-chloromandelic acid for predetermined time periods, prior to assay of the enzyme activity under standard conditions. […]

Row | Molecule | activity lost upon addition to the reaction
13 | O=C(O)c1ccccc1Cl [2-chlorobenzoic acid] | ~40%
14 | O=Cc1ccccc1Cl [2-chlorobenzaldehyde] | Approximately 70%

Tested on: nitrilase SEQ ID NOS:385, 386 (nitrilase I), obtained from an environmental sample
Assay: High throughput nitrilase activity assay, turnover frequency on mandelonitrile derivatives
Assay type: biochemical, Unknown (obtained from an environmental sample)
Conditions: 25 mM substrate, 0.12 mg/mL enzyme, 10% MeOH (v/v) 0.1 M phosphate buffer, 37°C, pH 8; 5 min timepoint
Method: The nitrilase library was screened for activity and enantioselectivity in the hydrolysis of mandelonitrile (3a, Ar = phenyl) to mandelic acid. […] Under standard conditions using 25 mM 3a and 0.12 mg/mL enzyme in 10% MeOH (v/v) 0.1 M phosphate buffer at 37°C and pH 8, (R)-mandelic acid was formed quantitatively within 10 min and with 98% ee. To confirm synthetic utility, the reaction was performed using 1.0 g 3a (50 mM) and 9 mg nitrilase (0.06 mg/mL nitrilase I); after 3 h (R)-mandelic acid was isolated in high yield (0.93 g, 86%) and again with 98% ee. [drawing 19] Table 13. SEQ ID NOS:385, 386-catalyzed production of mandelic acid derivatives and analogues 4a
as §1, with “Activity assays were conducted using 25 mM (-3 mg/mL) substrate, 0.1 mg/mL nitrilase in 0.25 mL of assay solution. Assay” for “Assay”

Row | Molecule | TOF (turnover frequency)
15 | N#CC(O)c1ccccc1 (stereo not shown) [mandelonitrile] | 28 mol product/mol catalyst/sec
16 | N#CC(O)c1cccc(Cl)c1 (stereo not shown) [3-chloromandelonitrile] | 3.4 mol product/mol catalyst/sec
17 | N#CC(O)c1cccc(Br)c1 (stereo not shown) [3-bromomandelonitrile] | 1.7 mol product/mol catalyst/sec
18 | N#CC(O)c1ccccc1Cl (stereo not shown) [2-chloro mandelonitrile] | 1.7 mol product/mol catalyst/sec
19 | N#CC(O)c1cccnc1 (stereo not shown) [3-pyridyl cyanohydrin] | 18.6 mol product/mol catalyst/sec
20 | N#CC(O)c1ccsc1 (stereo not shown) [3-thienyl cyanohydrin] | 16.8 mol product/mol catalyst/sec
21 | N#CC(O)c1ccccc1Br (stereo not shown) [2-bromomandelonitrile] | 5.6 mol product/mol catalyst/sec
22 | N#CC(O)c1ccc(F)cc1 (stereo not shown) [4-fluoromandelonitrile] | 11.8 mol product/mol catalyst/sec
23 | Cc1ccccc1C(O)C#N (stereo not shown) [2-methylmandelonitrile] | 5.1 mol product/mol catalyst/sec

Same assay, conditions: entries 8-9: pH 9 and 5 mM substrate concentration; otherwise standard conditions

Row | Molecule | TOF (turnover frequency)
24 | N#CC(O)c1ccc2ccccc2c1 (stereo not shown) [2-naphthyl cyanohydrin] | 2.8 mol product/mol catalyst/sec
25 | N#CC(O)c1cccc2ccccc12 (stereo not shown) [1-naphthyl cyanohydrin] | 2.8 mol product/mol catalyst/sec

Tested on: nitrilase expressing subclones SEQ ID NOS:101, 102, SEQ ID NOS:187, 188, SEQ ID NOS:29, 30
Assay: Growth of nitrilase expressing subclones in the presence of HPA nitrile
Assay type: cell-based
Conditions: cells grown at pH 7
Method: In preparation for assay automation, nitrilase expressing cells were added into microtiter plate containing M9 0.2% glucose,0.25 mM IPTG media by florescence activated cell sorting (FACS). Three nitrilase expressing subclones, and the empty vector control were evaluated: SEQ ID NOS:101, 102, SEQ ID NOS:187, 188, SEQ ID NOS:29, 30 and the empty vector. […] Thus colony picking is currently being evaluated as an alternative method to add cells into microtiter plates. The evaporative loss from an uncovered 1536-well microtiter plate is approximately 30% per day in the robot incubator (incubator conditions: 37°C at 85% relative humidity (RH)). Incubation in the 95% RH incubator reduced evaporative loss to 1% per day.
The ability of the three subclones to grow in the presence of up to 3.5 mM of nitrile was established using HPA nitrile. Growth rates were only slightly retarded (less that 30%). […] Only S was evaluated as the enzymes are S-selective. The reaction plate was read at 10 minute intervals, with 40 minutes showing the best linearity.

Row | Molecule | concentration above which cell growth is significantly inhibited
26 | CC(C)(CO)C(N)C#N (stereo not shown) [HPA, Hydroxypivaldehyde aminonitrile] | above 5 mM

Same assay, conditions: cells grown at pH 8

Row | Molecule | concentration above which growth was inhibited
27 | CC(C)(CO)C(N)C#N (stereo not shown) [HPA, Hydroxypivaldehyde aminonitrile] | above 0.1 mM

Same assay, conditions: in the presence of up to 3.5 mM of nitrile

Row | Molecule | growth rates retarded [%]
28 | CC(C)(CO)C(N)C#N (stereo not shown) [HPA, Hydroxypivaldehyde aminonitrile] | < 30
